Reference: ChEMBL document CHEMBL3885861, “Open TG-GATES”

Species on record: Rattus norvegicus
Assay: Open TG-GATES - Regimen: Single
Format: toxicity, organism-based, Sprague-Dawley
Parameters: regimen Single, gender Male, age 6 weeks
Details: in vivo, po, 30 mg/kg, route gavage, dose level Low; for APTT / Bas / Eos / Fbg / Hb / Ht / Lym / MCH / MCHC / MCV / Mono / Neu / PT / Plat / RBC / Ret / WBC: tissue Blood; for ALP / ALT / AST / BUN / CRE / DBIL / GLC / IP / K / Na / PL / RALB / TBIL / TC / TG / TP / gamma-GTP: tissue Plasma

Compound NS(=O)(=O)c1cc(C(=O)O)c(NCc2ccco2)cc1Cl [FUROSEMIDE] has a TERMINAL_BW (3 h) of 201.3 g, an APTT (3 h) of 18.1 s and a Bas (3 h) of 0%. The Eos (3 h) was 1%, the Fbg (3 h) was 278.8 mg/dL and the Hb (3 h) was 14 g/dL. For the same compound, the Ht (3 h) was 41.6%, the Lym (3 h) was 74.2% and the MCH (3 h) was 21.2 pg. It also gave an MCHC (3 h) of 33.6%, an MCV (3 h) of 63.2 fL and a Mono (3 h) of 4.4%. The Neu (3 h) was 19.6%, the PT (3 h) was 15.4 s and the Plat (3 h) was 117.4 x10_4/uL. The RBC (3 h) was 658.6 x10_4/ul, the Ret (3 h) was 7.9% and the WBC (3 h) was 68.2 x10_2/uL. It also gave an ALP (3 h) of 1468.8 IU/L, an ALT (3 h) of 46 IU/L and an AST (3 h) of 77 IU/L. It also gave a BUN (3 h) of 15.4 mg/dL, a CRE (3 h) of 0.2 mg/dL and a DBIL (3 h) of 0.01 mg/dL. For the same compound, the GLC (3 h) was 179.2 mg/dL, the IP (3 h) was 10.5 mg/dL and the K (3 h) was 3.7 meq/L. It also gave a Na (3 h) of 141.6 meq/L, a PL (3 h) of 149.8 mg/dL and an RALB (3 h) of 2.8 g/dL. It also gave a TBIL (3 h) of 0.058 mg/dL, a TC (3 h) of 79.4 mg/dL and a TG (3 h) of 63.6 mg/dL. The TP (3 h) was 5.9 g/dL, the gamma-GTP (3 h) was 1 IU/L and the TERMINAL_BW (6 h) was 199.3 g. The APTT (6 h) was 17.5 s, the Bas (6 h) was 0% and the Eos (6 h) was 1%. It also gave a Fbg (6 h) of 324.6 mg/dL, a Hb (6 h) of 14.1 g/dL and a Ht (6 h) of 41.9%. For the same compound, the Lym (6 h) was 74.4%, the MCH (6 h) was 21.6 pg and the MCHC (6 h) was 33.7%. The MCV (6 h) was 64 fL, the Mono (6 h) was 3.8% and the Neu (6 h) was 20%. The PT (6 h) was 15.2 s, the Plat (6 h) was 124.8 x10_4/uL and the RBC (6 h) was 655.4 x10_4/ul. It also gave a Ret (6 h) of 7.9%, a WBC (6 h) of 92.3 x10_2/uL and an ALP (6 h) of 1320.8 IU/L. The ALT (6 h) was 45.6 IU/L, the AST (6 h) was 74.6 IU/L and the BUN (6 h) was 17.8 mg/dL. For the same compound, the CRE (6 h) was 0.2 mg/dL, the DBIL (6 h) was 0.016 mg/dL and the GLC (6 h) was 181.2 mg/dL. It also gave an IP (6 h) of 10.4 mg/dL, a K (6 h) of 3.6 meq/L and a Na (6 h) of 141 meq/L. The PL (6 h) was 156.2 mg/dL, the RALB (6 h) was 2.9 g/dL and the TBIL (6 h) was 0.074 mg/dL. For the same compound, the TC (6 h) was 88.2 mg/dL, the TG (6 h) was 44.2 mg/dL and the TP (6 h) was 6.1 g/dL. It also gave a gamma-GTP (6 h) of 1 IU/L, a TERMINAL_BW (9 h) of 199.5 g and an APTT (9 h) of 17.3 s. The Bas (9 h) was 0%, the Eos (9 h) was 1% and the Fbg (9 h) was 310.2 mg/dL. The Hb (9 h) was 14 g/dL, the Ht (9 h) was 41.4% and the Lym (9 h) was 73%. The MCH (9 h) was 21.5 pg, the MCHC (9 h) was 33.8% and the MCV (9 h) was 63.8 fL. For the same compound, the Mono (9 h) was 3.2%, the Neu (9 h) was 22% and the PT (9 h) was 15.4 s. For the same compound, the Plat (9 h) was 118.1 x10_4/uL, the RBC (9 h) was 649.2 x10_4/ul and the Ret (9 h) was 8.1%. The WBC (9 h) was 89.5 x10_2/uL, the ALP (9 h) was 1152.2 IU/L and the ALT (9 h) was 38.6 IU/L. It also gave an AST (9 h) of 68.6 IU/L, a BUN (9 h) of 16.4 mg/dL and a CRE (9 h) of 0.2 mg/dL. It also gave a DBIL (9 h) of 0.01 mg/dL, a GLC (9 h) of 181.4 mg/dL and an IP (9 h) of 10.7 mg/dL. The K (9 h) was 3.7 meq/L, the Na (9 h) was 143 meq/L and the PL (9 h) was 147.4 mg/dL. The RALB (9 h) was 2.7 g/dL, the TBIL (9 h) was 0.072 mg/dL and the TC (9 h) was 81 mg/dL. For the same compound, the TG (9 h) was 38 mg/dL, the TP (9 h) was 5.8 g/dL and the gamma-GTP (9 h) was 0.8 IU/L. For the same compound, the TERMINAL_BW (24 h) was 224.4 g, the APTT (24 h) was 17.3 s and the Bas (24 h) was 0.2%. It also gave an Eos (24 h) of 1%, a Fbg (24 h) of 267 mg/dL and a Hb (24 h) of 13.3 g/dL. It also gave a Ht (24 h) of 39.7%, a Lym (24 h) of 78.6% and an MCH (24 h) of 21.8 pg. It also gave an MCHC (24 h) of 33.5%, an MCV (24 h) of 65.1 fL and a Mono (24 h) of 2.8%. It also gave a Neu (24 h) of 16.4%, a PT (24 h) of 15.8 s and a Plat (24 h) of 118.7 x10_4/uL. It also gave an RBC (24 h) of 610 x10_4/ul, a Ret (24 h) of 7.4% and a WBC (24 h) of 96 x10_2/uL. The ALP (24 h) was 1538.8 IU/L, the ALT (24 h) was 44.6 IU/L and the AST (24 h) was 73.6 IU/L. The BUN (24 h) was 16 mg/dL, the CRE (24 h) was 0.2 mg/dL and the DBIL (24 h) was 0.01 mg/dL. For the same compound, the GLC (24 h) was 183.4 mg/dL, the IP (24 h) was 7.7 mg/dL and the K (24 h) was 4 meq/L. For the same compound, the Na (24 h) was 142.6 meq/L, the PL (24 h) was 147.8 mg/dL and the RALB (24 h) was 2.6 g/dL. For the same compound, the TBIL (24 h) was 0.052 mg/dL, the TC (24 h) was 81.8 mg/dL and the TG (24 h) was 60.8 mg/dL. It also gave a TP (24 h) of 5.6 g/dL and a gamma-GTP (24 h) of 0.8 IU/L.
